Experimental data published in patent US20230017045A1, “PYRIDINE AND PYRIMIDINE CARBOXYLATE HERBICIDES AND METHODS OF USE THEREOF” (Dow AgroSciences LLC, priority 2017, published 2023).
Read-outs that look alike come from different tables or passages of the source.

System: test plant species
Test: Post-emergent herbicidal activity test (greenhouse, foliar spray, visual growth reduction)
Format: in vivo
Conditions: post-emergence, 336 h, 140 g ai/ha
Procedure: Post-emergent Test: Seeds or nutlets of the desired test plant species were planted in Sun Gro Metro-Mix® 360 planting mixture, which typically has a pH of 6.0 to 6.8 and an organic matter content of about 30 percent, in plastic pots with a surface area of 64 square centimeters. In some aspects, to ensure good germination and healthy plants, a fungicide treatment and/or other chemical or physical treatment was applied. The plants were grown for 7-21 d in a greenhouse with an approximate 15 h photoperiod which was maintained at 23-29° C. during the day and 22-28° C. during the night. Nutrients and water were added on a regular basis and supplemental lighting was provided with overhead metal halide 1000-Watt lamps as necessary. Plants were used for testing when they reached the first or second true leaf stage. A weighed amount, determined by the highest rate to be tested, of each test compound was placed in a 25 mL glass vial and was dissolved in 4 mL of a 97:3 v/v mixture of acetone and DMSO to obtain concentrated stock solutions. […] The concentrated stock solutions obtained were diluted with 20 mL of an aqueous mixture containing acetone, water, isopropyl alcohol, DMSO, […] crop oil concentrate, and X-77 surfactant in a 48.5:39:10:1.5:1.0:0.02 v/v ratio to obtain spray solutions containing the application rate. Compound requirements are based upon a 12 mL application volume at a rate of 187 liters per hectare (L/ha). Formulated compounds were applied to the plant material with an overhead Mandel track sprayer equipped with […] nozzles calibrated to deliver 187 L/ha over an application area of 0.64 square meters at a spray height of 18 inches (43 cm) above the average plant canopy height. Control plants were sprayed in the same manner with the solvent blank. The treated plants and control plants were placed in a greenhouse as described above and watered by subirrigation to prevent wash-off of the test compounds. After 14 d, the condition of the test plants as compared with that of the nontreated and control plants was determined visually and scored on a scale of 0 to 100 percent where 0 corresponds to no injury and 100 corresponds to complete control. In the reporting of the results, Table A: Percent Growth Reduction Conversion Table was used.

[1] = ECHCG: barnyardgrass (Echinochloa crus-galli), 14 days after application, read-out: Visual Growth Reduction (%) 14 Days After Application, ECHCG
[2] = IPOHE: ivy-leaf morning glory (Ipomoea hederacea), 14 days after application, read-out: Visual Growth Reduction (%) 14 Days After Application, IPOHE
[3] = KCHSC: kochia (Bassia scoparia), 14 days after application, read-out: Visual Growth Reduction (%) 14 Days After Application, KCHSC
[4] = ORYSA: rice (Oryza sativa), 14 days after application, read-out: Visual Growth Reduction (%) 14 Days After Application, ORYSA
[5] = SETFA: giant foxtail (Setaria faberi), 14 days after application, read-out: Visual Growth Reduction (%) 14 Days After Application, SETFA
[6] = SORVU: grain sorghum (Sorghum vulgare), 14 days after application, read-out: Visual Growth Reduction (%) 14 Days After Application, SORVU
[7] = STEME: common chickweed (Stellaria media), 14 days after application, read-out: Visual Growth Reduction (%) 14 Days After Application, STEME
[8] = TRZAS: wheat, spring (Triticum aestivum), 14 days after application, read-out: Visual Growth Reduction (%) 14 Days After Application, TRZAS
[9] = blackgrass (Alopecurus myosuroides), 14 Days After Application, read-out: Visual Growth Reduction (%) ALOMY
[10] = canada thistle (Cirsium arvense), 14 Days After Application, read-out: Visual Growth Reduction (%) CIRAR
[11] = crabgrass (Digitaria sanguinalis), 14 Days After Application, read-out: Visual Growth Reduction (%) DIGSA
[12] = lambsquarters (Chenopodium album), 14 Days After Application, read-out: Visual Growth Reduction (%) CHEAL
[13] = redroot pigweed (Amaranthus retroflexus), 14 Days After Application, read-out: Visual Growth Reduction (%) AMARE
[14] = wild oat (Avena fatua), 14 Days After Application, read-out: Visual Growth Reduction (%) AVEFA
[15] = yellow nutsedge (Cyperus esculentus), 14 Days After Application, read-out: Visual Growth Reduction (%) CYPES

Compound | pest or weed control at 140 g/ha [1] | pest or weed control at 140 g/ha [2] | pest or weed control at 140 g/ha [3] | pest or weed control at 140 g/ha [4] | pest or weed control at 140 g/ha [5] | pest or weed control at 140 g/ha [6] | pest or weed control at 140 g/ha [7] | pest or weed control at 140 g/ha [8] | pest or weed control at 140 g/ha [9] | pest or weed control at 140 g/ha [10] | pest or weed control at 140 g/ha [11] | pest or weed control at 140 g/ha [12] | pest or weed control at 140 g/ha [13] | pest or weed control at 140 g/ha [14] | pest or weed control at 140 g/ha [15] | also measured
COC(=O)c1nc(-c2ccc(C(F)(F)F)cc2OC)c(F)cc1F [F377, Methyl 3,5-difluoro-6-(2-methoxy-4-(trifluoromethyl)phenyl)picolinate] | 60 to 74% | 95 to 100% | 60 to 74% | 0 to 29% | 75 to 84% | 85 to 94% | 0 to 29% | 0 to 29% | 0 to 29% | 75 to 84% | 60 to 74% | 85 to 94% | 95 to 100% | 30 to 44% | 60 to 74% | 
COc1c(-c2nc(C(=O)O)c(Cl)cc2F)ccc(C(F)F)c1F [F230, 3-Chloro-6-(4-(difluoromethyl)-3-fluoro-2-methoxyphenyl)-5-fluoropicolinic acid] | 60 to 74% | 95 to 100% | 95 to 100% | 0 to 29% | 30 to 44% | 60 to 74% | 0 to 29% | 0 to 29% | 0 to 29% | 95 to 100% | 0 to 29% | 95 to 100% | 95 to 100% | 0 to 29% | 0 to 29% | 
COC(=O)c1nc(-c2cc3c(cc2F)OC(F)(F)O3)c(OC)cc1Cl [F335, Methyl 3-chloro-5-methoxy-6-(2,2,6-trifluorobenzo[d][1,3]dioxol-5-yl)picolinate] | 0 to 29% | 0 to 29% | 0 to 29% | 0 to 29% | 0 to 29% | 0 to 29% | 0 to 29% | 0 to 29% | 0 to 29% |  | 0 to 29% | 30 to 44% | 0 to 29% | 0 to 29% | 0 to 29% | 
COC(=O)c1nc(-c2cc3c(cc2Cl)OC(F)(F)O3)c(Cl)cc1Cl [F154, Methyl 3,5-dichloro-6-(6-chloro-2,2-difluorobenzo[d] [1,3]dioxol-5-yl)picolinate] | 0 to 29% | 95 to 100% | 0 to 29% | 0 to 29% | 45 to 59% | 60 to 74% | 0 to 29% | 0 to 29% |  |  |  |  |  |  |  | pest or weed control at 140 g/ha (ALOMY: blackgrass (Alopecurus myosuroides), 14 days after application, read-out: Visual Growth Reduction (%) 14 Days After Application, ALOMY): 0 to 29%; pest or weed control at 140 g/ha (AMARE: redroot pigweed (Amaranthus retroflexus), 14 days after application, read-out: Visual Growth Reduction (%) 14 Days After Application, AMARE): 85 to 94%; pest or weed control at 140 g/ha (AVEFA: wild oat (Avena fatua), 14 days after application, read-out: Visual Growth Reduction (%) 14 Days After Application, AVEFA): 0 to 29%; pest or weed control at 140 g/ha (CHEAL: lambsquarters (Chenopodium album), 14 days after application, read-out: Visual Growth Reduction (%) 14 Days After Application, CHEAL): 85 to 94%; pest or weed control at 140 g/ha (CIRAR: canada thistle (Cirsium arvense), 14 days after application, read-out: Visual Growth Reduction (%) 14 Days After Application, CIRAR): 0 to 29%; pest or weed control at 140 g/ha (CYPES: yellow nutsedge (Cyperus esculentus), 14 days after application, read-out: Visual Growth Reduction (%) 14 Days After Application, CYPES): 0 to 29%; pest or weed control at 140 g/ha (DIGSA: crabgrass (Digitaria sanguinalis), 14 days after application, read-out: Visual Growth Reduction (%) 14 Days After Application, DIGSA): 60 to 74%
COC(=O)c1nc(-c2cc(C)c(C(F)(F)F)cc2F)c(F)cc1Cl [F360, Methyl 3-chloro-5-fluoro-6-(2-fluoro-5-methyl-4-(trifluoromethyl)phenyl)picolinate] | 0 to 29% | 95 to 100% | 45 to 59% | 0 to 29% | 0 to 29% | 0 to 29% | 0 to 29% | 0 to 29% | 0 to 29% | 0 to 29% | 0 to 29% | 95 to 100% | 95 to 100% | 0 to 29% | 0 to 29% | 
